Earlier results on one molecule are cited in patent US6413988B1, “Prucalopride oral solution” (Janssen Pharmaceutica N.V., priority 1999, dated 2002).

One series concerns the target 5-HT2A receptors (Homo sapiens, UniProt P28223).
The target in a further series is 5-HT4 receptors (Homo sapiens, UniProt Q13639).
Chain of 5-HT4 receptors (Q13639 whole entry): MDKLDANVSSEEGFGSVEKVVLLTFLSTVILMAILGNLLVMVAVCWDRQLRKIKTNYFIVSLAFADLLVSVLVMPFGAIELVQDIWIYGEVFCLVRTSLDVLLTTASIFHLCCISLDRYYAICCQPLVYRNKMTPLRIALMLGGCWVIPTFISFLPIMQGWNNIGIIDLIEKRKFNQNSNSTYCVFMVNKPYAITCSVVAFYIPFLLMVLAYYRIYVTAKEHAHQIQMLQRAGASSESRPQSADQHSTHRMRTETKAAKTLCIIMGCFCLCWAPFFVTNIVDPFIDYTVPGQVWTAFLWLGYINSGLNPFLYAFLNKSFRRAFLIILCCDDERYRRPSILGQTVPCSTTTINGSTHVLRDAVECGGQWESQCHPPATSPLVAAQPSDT

Chain of 5-HT2A receptors (P28223 whole entry): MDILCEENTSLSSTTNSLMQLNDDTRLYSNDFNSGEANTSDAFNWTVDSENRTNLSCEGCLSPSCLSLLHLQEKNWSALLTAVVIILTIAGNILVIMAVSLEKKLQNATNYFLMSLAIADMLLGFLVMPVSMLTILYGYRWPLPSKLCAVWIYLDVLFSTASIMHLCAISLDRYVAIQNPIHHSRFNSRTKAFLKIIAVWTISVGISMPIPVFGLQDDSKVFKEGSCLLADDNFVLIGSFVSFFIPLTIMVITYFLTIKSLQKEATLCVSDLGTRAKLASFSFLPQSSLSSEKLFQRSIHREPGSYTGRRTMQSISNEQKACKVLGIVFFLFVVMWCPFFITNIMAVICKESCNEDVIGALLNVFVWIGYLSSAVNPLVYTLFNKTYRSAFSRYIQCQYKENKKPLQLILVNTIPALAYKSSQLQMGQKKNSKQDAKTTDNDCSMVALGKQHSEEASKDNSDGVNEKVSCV

With `COCCCN1CCC(NC(=O)c2cc(Cl)c(N)c3c2OCC3)CC1` [Prucalopride, 4-amino-5-chloro-2,3-dihydro-N-[1-(3-methoxypropyl)-4-piperidinyl]-7-benzofuran-carboxamide], the “affinity for 5-HT3 receptors” value in the series with 5-HT3 receptors is reported as “no affinity”. The “affinity for 5-HT2A receptors” value on 5-HT2A receptors is listed as “no affinity”. For the same molecule, on 5-HT4 receptors, the “agonist of 5-HT4 receptors” value is “potent and selective agonist”. The “colonic motility and defecation” value in the series with colon (in animals) was “stimulates colonic motility and defecation”. Moreover, in the series with colon (propagated over the length of the colon as a peristaltic wave), the “giant contractions in the colon” value is “induces giant contractions in the colon”.
